Reference: patent US8748497B2, “Optimized fluorocarbon emulsions for blood substitutes and other therapeutic uses” (Alliance Pharmaceutical Corp., priority 2006, dated 2014)
Read-outs that look alike come from different tables or passages of the source.

Experiments:
[1] = pharmacokinetics in blood after single intravenous administration of the emulsion of Ex. VI; format: in vivo, Sprague Dawley rats; conditions: for half-life: Sprague-Dawley, rat, iv; for half-life / AUC(o-last) / AUC(o-∞) / Cl: blood; for Vd: terminal phase
Description: (§1) This study was designed to assess the pharmokinetics and tissue distribution of PFOB and PFDB following a single intravenous administration of the emulsion of Ex. VI at various time intervals at dose levels of 1.8 and 3.6 g PFC/k in male and female Sprague Daley rats, aged 7-9 weeks, weight between 190-267 grams. For pharmacokinetics, 160 rats were divided into 20 groups (N=4 rats/sex/dose/time interval) and for tissue distribution, 156 rats were divided into 26 groups (n=3 rats/sex/dose/time interval). The time intervals for pharmacokinetics blood sampling were 0.083, 0.5, 1, 3, 6, 12, 36, 48, 72 and 96 hours. The time intervals for tissue sampling was predose, 24 hours, 1, 2, 4, 8, 13, 17, 21, 26, 39, 52 and 72 weeks.
Six pharmacokinetic parameters were determined following a single intravenous dose of 1.8 gPFC/kg or 3.6 g PFC/kg in both the male and female rats as shown in the tables below.

[2] = tissue distribution after single intravenous administration of the emulsion of Ex. VI, GC headspace; format: in vivo, Sprague Dawley rats; conditions: 24 hours; for concentration at 24 h: Sprague-Dawley, rat, intravenous
Description: as §1
26 groups (N=3 rats/sex/group). Prior to euthanasia, body weights were recorded. At designated times (see below), rats were anesthetized with METOFANE® and esanguinated via the abdominal artery. Blood was collected into syringes containing EDTA and transferred into sealed plastic containers for storage at approximately −20° C. until analyzed. Resultant data were included in the determination of pharmacokinetic parameters. The following tissues were collected from each rat and placed in sealed containers and stored frozen at −20° C. Prior to freezing, blood and tissue samples were processed for analysis. PFOB and PFDB were quantified in blood and tissues using a GC headspace method validated by Oread. The method was validated in the liver and then cross validated to all other tissues, blood, and serum. The tissues collected and analyzed include heart, lungs, abdominal fat, spleen, liver, mesenteric lymph nodes, kidneys, adrenals, testes, ovaries, uterus, whole brain, eyes, skeletal muscle, femoral bone marrow, and gastrointestinal tract.
The concentration of PFOB and PFDB was determined in the tissues in both sexes at 12 time points. For the males, this was a total of 360 individual results including blood. There were 24 additional results for the female.

[3] = Phase 1 pharmacokinetics in healthy human volunteers; format: in vivo; conditions: human, blood; for AUC(0-t) / half-life: intravenous; for AUC(0-t): read-out: AUC (0-336); for half-life: read-out: t1/2. 12 h (initial elimination half-life within the first 12 h post dose) (converted); for Cmax: iv, healthy volunteers
Description: Two randomised, controlled, double-blind, parallel group, Phase 1 studies were conducted in healthy human patients with the fluorocarbon emulsion made according to Example VI. Blood and expired air samples were analysed for PFOB and PFDB after a single intravenous dose of 1.2 or 1.8 g PFC/kg of the fluorocarbon emulsion of Example VI in healthy human volunteers to determine pharmacokinetics. Blood samples were collected up to 336 hours post-dosing.

[4] = four compartment model; cited from earlier work
[5] = pharmacokinetics in subjects undergoing noncardiac surgical procedures; format: in vivo, human; conditions: noncardiac surgery; for AUC(0-inf) / clearance / Cmax / half-life: human, whole blood; for clearance: read-out: CL (whole blood clearance) (converted); for Cmax: read-out: Cmax (maximum whole blood concentration); for half-life: read-out: T1/2 (elimination half-life) (converted)
Description: The pharmacokinetics of PFOB and PFDB were determined after the administration of the fluorocarbon emulsion of Example VI to subjects undergoing total hip replacement or spinal surgery or a variety of urologic and gynaecologic procedures including radical retropubic prostatectomy, radical hysterectomy, cystectomy and combined procedures. Human subjects in one study received either 0.9 g PFC/kg or 1.8 g PFC/kg of the fluorocarbon formulation of Example VI and those in a second study received 1.8 g PFC/kg of the fluorocarbon formulation of Example VI.

[6] = pharmacokinetics in subjects undergoing CABG surgery with hypothermic CPB; format: in vivo, human
Description: The pharmacokinetics of PFOB and PFDB were determined after the administration of the fluorocarbon formulation taught in Example VI to human subjects undergoing coronary artery bypass grafting or CABG surgery with hypothermic cardiopulmonary bypass. In group 1 and in group 2, human subjects received the fluorocarbon emulsion (2.7 g PFC/kg) as taught in Example VI directly into the bypass oxygenator after being put on bypass but before cooling was begun. In group 4, subjects received 2.7 g PFC/kg of the fluorocarbon emulsion of Example VI directly into the bypass oxygenator either prior to aortic cannulation or after being put on bypass, but before cooling was begun.

[7] = female rats, 1.8 g PFC/kg single iv
[8] = female rats, 3.6 g PFC/kg single iv
[9] = male rats, 1.8 g PFC/kg single iv
[10] = male rats, 3.6 g PFC/kg single iv
[11] = 1.2 g PFC/kg, Table VII, 1.2 g PFC/kg
[12] = 1.2 g PFC/kg, Table VIII, 1.2 g PFC/kg
[13] = 1.8 g PFC/kg, Table VII, 1.8 g PFC/kg
[14] = 1.8 g PFC/kg, Table VIII, 1.8 g PFC/kg

FC(F)(F)C(F)(F)C(F)(F)C(F)(F)C(F)(F)C(F)(F)C(F)(F)C(F)(F)Br [PFOB, perfluorooctyl bromide]
half-life ([1]; both sexes, 1.8 g/kg, male and female rats, 1.8 g PFC/kg, read-out: average terminal t1/2 (converted)): ~73 h
half-life ([1]; both sexes, 3.6 g/kg, male and female rats, 3.6 g PFC/kg, read-out: average terminal t1/2 (converted)): 181 h
AUC(o-last) [1, 7]: 126.86 mg·h/g
AUC(o-∞) [1, 7]: 126.89 mg·h/g
Cl [1, 7]: 5.41 g/h/kg
Vd [1, 7]: 1605.67 g/kg
AUC(o-last) [1, 8]: 541.55 mg·h/g
AUC(o-∞) [1, 8]: 541.58 mg·h/g
Cl [1, 8]: 6.70 g/h/kg
Vd [1, 8]: 1182.97 g/kg
half-life ([1]; female, 1.8 g/kg, female rats, 1.8 g PFC/kg single iv, last 3 or 4 data points, read-out: T1/2 (converted)): 78.5 h
half-life ([1]; female, 3.6 g/kg, female rats, 3.6 g PFC/kg single iv, last 3 or 4 data points, read-out: T1/2 (converted)): 123 h
AUC(o-last) [1, 9]: 122.65 mg·h/g
AUC(o-∞) [1, 9]: 122.69 mg·h/g
Cl [1, 9]: 6.01 g/h/kg
Vd [1, 9]: 1443.18 g/kg
AUC(o-last) [1, 10]: 566.13 mg·h/g
AUC(o-∞) [1, 10]: 566.15 mg·h/g
Cl [1, 10]: 8.93 g/h/kg
Vd [1, 10]: 2191.83 g/kg
half-life ([1]; male, 1.8 g/kg, male rats, 1.8 g PFC/kg single iv, last 3 or 4 data points, read-out: T1/2 (converted)): 68.2 h
half-life ([1]; male, 3.6 g/kg, male rats, 3.6 g PFC/kg single iv, last 3 or 4 data points, read-out: T1/2 (converted)): 238 h
concentration in the liver and bone marrow ([2]; all four groups): greater than 10 mg/g
percent of dose in liver ([2]; female rats, 1.8 g PFC/kg): approximately 63%
percent of dose in spleen ([2]; female rats, 1.8 g PFC/kg): approximately 4%
percent of dose in liver ([2]; female rats, 3.6 g PFC/kg): approximately 53%
percent of dose in spleen ([2]; female rats, 3.6 g PFC/kg): < 1%
concentration at 24 h ([2]; female, females 1.8 g PFC/kg, all tissues except the blood, eyes, and skeletal muscle, read-out: concentration in tissues): > 100000 ng/g
concentration at 24 h ([2]; female, females 3.6 g/kg of PFC, all tissues, read-out: concentration in tissues): > 100000 ng/g
percent of dose in liver ([2]; male rats, 1.8 g PFC/kg): approximately 59%
percent of dose in spleen ([2]; male rats, 1.8 g PFC/kg): < 1%
percent of dose in liver ([2]; male rats, 3.6 g PFC/kg): approximately 69%
concentration at 24 h ([2]; male, 3.6 g PFC/kg, males 3.6 PFC/kg, all tissues, read-out: concentration in tissues): > 100000 ng/g
concentration at 24 h ([2]; male, males 1.8 g/kg of PFC, all tissues except the eyes and skeletal muscles, read-out: absolute concentration in tissues): > 100000 ng/g
AUC(0-t) [3, 11]: 10.2 µg·h/mL
half-life [3, 11]: 6.55 ± 2.06 h
AUC(0-t) [3, 12]: 79200 µg·h/mL
half-life [3, 12]: 5.41 h
AUC(0-t) [3, 13]: 285000 µg·h/mL
half-life [3, 13]: 10.5 ± 2.1 h
AUC(0-t) [3, 14]: 239000 µg·h/mL
half-life [3, 14]: 7.66 h
Cmax ([3]; 1.2 g PFC/kg, Table VII, 1.2 g PFC/kg single iv): 13600 µg/mL
Cmax ([3]; 1.2 g PFC/kg, Table VIII, 1.2 g PFC/kg single iv): 12600 µg/mL
Cmax ([3]; 1.8 g PFC/kg, Table VII, 1.8 g PFC/kg single iv): 22700 µg/mL
Cmax ([3]; 1.8 g PFC/kg, Table VIII, 1.8 g PFC/kg single iv): 21800 µg/mL
rate constant k10 [4]: ≈ 0.000 hr^−1
rate constant k12 [4]: ≈ 0.04 hr^−1
rate constant k24 [4]: ≈ 0.006 hr^−1
rate constant k34 [4]: ≈ 0.002 hr^−1
rate constant k40 [4]: ≈ 0.07 hr^−1
rate constant k42 [4]: ≈ 0.002 hr^−1
AUC(0-inf) ([5]; 0.9 g PFC/kg): 13300 µg·h/mL
clearance ([5]; 0.9 g PFC/kg): 0.0965 L/h/kg
Cmax ([5]; 0.9 g PFC/kg): 7680 µg/mL
half-life ([5]; 0.9 g PFC/kg): 2.36 ± 3.06 h
AUC(0-inf) ([5]; 1.8 g PFC/kg): 57400 µg·h/mL
clearance ([5]; 1.8 g PFC/kg): 0.0422 L/h/kg
Cmax ([5]; 1.8 g PFC/kg): 17500 µg/mL
half-life ([5]; 1.8 g PFC/kg): 3.77 ± 2.69 h
whole blood concentration relative to PFDB [5]: approximately 30 fold
whole blood concentration relative to PFDB [6]: ~30 fold
AUC(0-inf) ([6]; human, whole blood, other: directly into the bypass oxygenator, 2.7 g PFC/kg): 300000 µg·h/mL
clearance ([6]; human, whole blood, other: directly into the bypass oxygenator, 2.7 g PFC/kg, read-out: CL (whole blood clearance) (converted)): 0.00988 L/h/kg
Cmax ([6]; human, whole blood, other: directly into the bypass oxygenator, 2.7 g PFC/kg, read-out: Cmax (maximum whole blood concentration)): 30300 µg/mL
half-life ([6]; human, whole blood, other: directly into the bypass oxygenator, 2.7 g PFC/kg, read-out: T1/2 (elimination half-life) (converted)): 7.65 ± 2.71 h
